According to article PMC7962978, “PSMA-D4 Radioligand for Targeted Therapy of Prostate Cancer: Synthesis, Characteristics and Preliminary Assessment of Biological Properties” (International Journal of Molecular Sciences, 2021):
Where two headings read alike, the source gives them in different places.

What was measured:
LNCaP cells = test: Cell uptake (total binding) and internalization in LNCaP cells; assay type: cell-based, human; settings: 37 °C, 2 h
Description: To determine cell uptake and internalization of [^177Lu]Lu-PSMA-D4 and [^90Y]Y-PSMA-D4, LNCaP cells (5 × 10^5 cells well^−1) were incubated in un-supplemented RPMI 1640 medium with one concentration of tested radioligands on 12-well plates in 37 °C per 2 h. After the appropriate time, the medium was removed, and cells were washed twice using phosphate buffer saline (PBS, IITD PAN, Wroclaw, Poland). The cells were treated twice with 1 mL of 50 mM glycine in 0.1 M NaCl at a pH of 2.8 and incubated for 5 min at room temperature to collect extracellularly bound compound. The internalization was determined by measuring the radioactivity of 1mL of 1 M NaOH used for cell lysis. Total binding was calculated as a sum of the membrane and internalized fractions measured using Wallac Wizard 1470 γ counter. As a control, [^177Lu]Lu-PSMA-617 and [^68Ga]Ga-PSMA-11 were used.

PSMA = target: PSMA; parameters: method as in earlier work; settings: ref 34 (Tönnesmann R et al.); cited from earlier work
[1] = Lipophilicity determination (logD), shake-flask method; assay type: physicochemical; settings: n-octanol / PBS pH 7.4, shake-flask
Description: The partition coefficient logD of the radioligands was determined by the shake-flask method. The solution of 10 to 50 MBq of radiolabeled PSMA ligands (D-4, 617, 11, I&T) in 1.0 mL of phosphate-buffered saline (PBS, pH 7.4) was added to 1.0 mL of presaturated n-octanol solution (n = 3). Vials were shaken vigorously for 10 min. To achieve quantitative phase separation, the vials were centrifuged at 1600 rpm for 5 min. The radioactivity concentration in a defined volume of both the aqueous and the organic phase in six replicates each was measured in a γ-counter (Wizard 1470, Wallac, Turku, Finland). The partition coefficient was calculated as the logarithm of the ratio between counts per minute (cpm) measured in the n-octanol phase to the PBS phase counts.

[2] = test system: PC-3 PIP (PSMA positive) tumor-bearing mice; parameters: method as in PMID 28102507; settings: PC-3 PIP tumor, 2 h p.i.v., 1 nmol, BALB/c Nude mice; cited from earlier work
PSMA antigen [3] = target: T1, PSMA antigen (Homo sapiens, UniProt Q04609); test: Saturation radioligand binding assay on LNCaP (PSMA positive) and PC3 (PSMA negative) cell membranes; settings: for Kd: LNCaP cell membranes, 2 h, 37 °C; for Specific Binding: total binding on LNCaP minus non-specific binding on PC3 membranes
T1 construct: PSMA antigen expressed on LNCaP cell membranes; endogenous in cells; host or cells: LNCaP cell membranes (PC3 membranes as PSMA-negative control)
Description: The equilibrium constant (KD) was determined by a saturation binding experiment performed in PSMA positive LNCaP and PSMA negative PC3 cell membranes isolated according to the procedure developed by Fichna et al.. The 50 mcL of LNCaP and PC3 cell membranes were seeded on special MultiScreen™ 96 well filter plates (Merck, Warsaw, Poland) and incubated for 2 h with increasing concentration of [^177Lu]Lu-PSMA-D4, [^90Y]Y-PSMA-D4, and […] (0.016–194 nM) at 37 °C. After incubation, the unbound radiocomplexes were filtered under vacuum, and the membranes were washed twice using PBS. The filters containing membranes with the attached radiotracer were extruded into tubes using MultiScreen Multile Punch (Merck). The number of associated inhibitors was determined by measuring the radioactivity of squeezed filters using Wallac Wizard 1470 γ counter. The KD and Bmax were calculated by nonlinear regression using the GraphPad Prism statistic program.

LNCaP tumor-bearing mice = settings: 1 h p.i.v., cited from earlier work
PSMA antigen [4] = target: T1, PSMA antigen; test: Competitive binding assay on LNCaP cell membranes with [^177Lu]Lu-PSMA-617 as radioligand; settings: radioligand [^177Lu]Lu-PSMA-617, 2 h incubation
Description: The half-maximal inhibitory concentration (IC50) of PSMA-D4 was determined in a competitive binding assay carried out on 96-well MuliScreen filter plates using LNCaP cell membranes (50 mcL) incubated with [^177Lu]Lu-PSMA-617 as a radioligand and ten different concentrations (2.4–9708 nM) of PSMA-D4. After 2 h incubation, plates were treated in the same way as in the saturation binding assay. The amount of bound radioactivity was measured in γ-counter. IC50 value was evaluated using GraphPad Prism software (Darmstadt, Germany).

mCRPC patients = test system: mCRPC patients; parameters: method as in PMID 32172798, PMID 31418764, PMID 32290196; settings: four clinical studies, approximately 150 mCRPC patients; cited from earlier work
[5] = 0.2 nmol, CD-1 nu/nu mice, ref 14
[6] = 0.2 nmol, CD-1 nu/nu mice, ref 37

T1 sequence (Q04609 whole entry): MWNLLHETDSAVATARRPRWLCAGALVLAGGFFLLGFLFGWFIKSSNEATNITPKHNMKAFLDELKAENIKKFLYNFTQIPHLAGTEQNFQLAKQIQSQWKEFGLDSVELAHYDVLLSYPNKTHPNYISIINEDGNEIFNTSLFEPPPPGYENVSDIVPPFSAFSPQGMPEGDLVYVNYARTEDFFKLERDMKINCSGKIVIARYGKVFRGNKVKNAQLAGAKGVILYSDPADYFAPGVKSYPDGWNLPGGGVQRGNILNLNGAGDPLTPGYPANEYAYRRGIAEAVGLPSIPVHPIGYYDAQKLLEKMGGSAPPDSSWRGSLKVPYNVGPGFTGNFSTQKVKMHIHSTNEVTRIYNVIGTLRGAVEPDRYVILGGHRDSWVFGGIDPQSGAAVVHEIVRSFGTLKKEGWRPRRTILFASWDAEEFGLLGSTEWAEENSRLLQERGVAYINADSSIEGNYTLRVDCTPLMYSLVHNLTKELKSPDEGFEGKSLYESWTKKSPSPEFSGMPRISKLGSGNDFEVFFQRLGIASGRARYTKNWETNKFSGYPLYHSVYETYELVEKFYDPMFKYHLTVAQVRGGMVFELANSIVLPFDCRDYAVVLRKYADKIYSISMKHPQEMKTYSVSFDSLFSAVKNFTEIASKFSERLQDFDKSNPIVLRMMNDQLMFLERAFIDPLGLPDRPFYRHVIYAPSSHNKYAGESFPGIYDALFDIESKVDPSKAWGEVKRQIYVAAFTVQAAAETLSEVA

In the case of `O=C([O-])CN1CCN(CC(=O)[O-])CCN(CC(=O)NCC2CCC(C(=O)NC(Cc3ccc4ccccc4c3)C(=O)NCCCCC(NC(=O)NC(CCC(=O)O)C(=O)O)C(=O)O)CC2)CCN(CC(=O)[O-])CC1.[177Lu+3]` (centres unmarked) [[^177Lu]Lu-PSMA-617], the Internalization (LNCaP cells) is reported as 35.4–38.9%, the “Total Binding” value (LNCaP cells) is reported as 10.2–16.8% and the Internalization (LNCaP cells; listed as [^177Lu]Lu-PSMA 617) is reported as 38.9 ± 1.7%. The “Total Binding” value (LNCaP cells; listed as [^177Lu]Lu-PSMA 617) was 12.8 ± 1.0%, the Kd (PSMA) was 2 ± 0.3 nM and the logD [1] was −5.12 ± 0.07. For the same molecule, the kidneys [2] was 3.97 ± 0.56 %ID g^−1, the spleen [2] was 0.21 ± 0.03 %ID g^−1 and the tumor [2] was 45.8 ± 4.02 %ID g^−1.

In the case of `O=C([O-])CN1CCN(CC(=O)[O-])CCN(CC(=O)NCC2CCC(C(=O)NC(Cc3ccc4ccccc4c3)C(=O)NCCCCC(NC(=O)NC(CCC(=O)O)C(=O)O)C(=O)O)CC2)CCN(CC(=O)[O-])CC1.[90Y+3]` (centres unmarked) [[^90Y]Y-PSMA-617], the logD [1] is reported as −5.08 ± 0.13.

In the case of `O=C([O-])CN(CCN(CC(=O)[O-])Cc1cc(CCC(=O)NCCCCCC(=O)NCCCC[C@H](NC(=O)N[C@@H](CCC(=O)O)C(=O)O)C(=O)O)ccc1[O-])Cc1cc(CCC(=O)O)ccc1[O-].[68Ga+3].[OH3+]` [[^68Ga]Ga-PSMA-11], the Internalization (LNCaP cells) is reported as 2.6%, the “Total Binding” value (LNCaP cells) is reported as 13.1% and the Kd (PSMA antigen [3]) is reported as 11.4 ± 7.1 nM. The “Specific Binding” value (PSMA antigen [3]) was 96.8 ± 2.7%, the tumor (LNCaP tumor-bearing mice; dose n.d., Nude mice) was 7.28 ± 0.82 %ID g^−1 and the logD [1] was −3.46 ± 0.06. The kidneys [2] was 58.8 ± 7.62 %ID g^−1, the spleen [2] was 2.18 ± 0.38 %ID g^−1 and the tumor [2] was 40.0 ± 2.55 %ID g^−1.

For `O=C(O)CC[C@H](NC(=O)N[C@@H](CCCCNC(=O)CCCCCCC(=O)NCCCC[C@@H](NC(=O)[C@@H](Cc1ccccc1)NC(=O)[C@@H](Cc1ccc(O)c(I)c1)NC(=O)CCC(C(=O)O)N1CCN(CC(=O)O)CCN(CC(=O)O)CCN(CC(=O)O)CC1)C(=O)O)C(=O)O)C(=O)O` (some centres unmarked) [PSMA-I&T, Glu-CO-Lys[(Sub)DLys-DPhe-DTyr(3I)-DOTAGA]], the IC50 (PSMA antigen [4]) was 61.1 ± 7.8 nM.

In the case of `O=C([O-])CN1CCN(CC(=O)[O-])CCN(CC(=O)NCC2CCC(C(=O)NC(Cc3ccc4ccccc4c3)C(=O)NCCCCC(NC(=O)NC(CCC(=O)O)C(=O)O)C(=O)O)CC2)CCN(CC(=O)[O-])CC1.[225Ac+3]` (centres unmarked) [PSMA-617 labeled with actinium-225], the hematologic toxicity (mCRPC patients) is given as “extremely low hematologic toxicity” and the “patients with prostate-specific antigen (PSA) response in terms of PSA decline” value (mCRPC patients) is given as roughly 90%.

In the case of `O=C([O-])CN1CCN(CC(=O)[O-])CCN(CC(=O)NCC2CCC(C(=O)NC(Cc3ccc4ccccc4c3)C(=O)NCCCCC(NC(=O)NC(CCC(=O)O)C(=O)O)C(=O)O)CC2)CCN(CC(=O)[O-])CC1.[68Ga+3]` (centres unmarked) [[^68Ga]Ga-PSMA-617], the kidneys [2] is listed as 3.48 ± 0.18 %ID g^−1, the spleen [2] is listed as 0.91 ± 0.14 %ID g^−1 and the tumor [2] is listed as 55.8 ± 14.2 %ID g^−1.

In the case of `O=C([O-])CN1CCN(CC(=O)[O-])CCN(CC(=O)NCC2CCC(C(=O)NC(Cc3ccc4ccccc4c3)C(=O)NCCCCC(NC(=O)NC(CCC(=O)O)C(=O)O)C(=O)O)CC2)CCN(CC(=O)[O-])CC1.[47Sc+3]` (centres unmarked) [[^47Sc]Sc-PSMA-617], the kidneys [2] is listed as 5.97 ± 0.90 %ID g^−1, the spleen [2] is listed as 0.81 ± 0.34 %ID g^−1 and the tumor [2] is listed as 46.7 ± 4.36 %ID g^−1.

In the case of `O=C(O)CCc1ccc(O)c(CN(CCN(CC(=O)O)Cc2cc(CCC(=O)NCCCCCC(=O)NCCCC[C@H](NC(=O)N[C@@H](CCC(=O)O)C(=O)O)C(=O)O)ccc2O)CC(=O)O)c1` [PSMA-11, reference compound], the IC50 (PSMA antigen [4]) is reported as 84.5 ± 26.5 nM and the Internalization (LNCaP cells) is reported as 2.6%.

For `O=C([O-])CC[C@H](NC(=O)N[C@@H](CCCCNC(=O)CCCCCCC(=O)NCCCC[C@@H](NC(=O)[C@@H](Cc1ccccc1)NC(=O)[C@@H](Cc1ccc(O)c(I)c1)NC(=O)CC[C@H](C(=O)[O-])N1CCN(CC(=O)[O-])CCN(CC(=O)[O-])CCN(CC(=O)[O-])CC1)C(=O)[O-])C(=O)[O-])C(=O)[O-].[177Lu+3].[H+].[H+].[H+].[H+].[H+]` [[^177Lu]Lu-PSMA-I&T], the Kd (PSMA antigen [3]) is given as 5.1 ± 2.6 nM, the “Specific Binding” value (PSMA antigen [3]) is given as 97.1 ± 2.9% and the kidneys (LNCaP tumor-bearing mice; [5]) is given as 107.24 ± 15.61 %ID g^−1. For the same molecule, the spleen (LNCaP tumor-bearing mice; [5]) was 5.85 ± 2.26 %ID g^−1, the tumor (LNCaP tumor-bearing mice; [5]) was 7.96 ± 1.76 %ID g^−1 and the kidneys (LNCaP tumor-bearing mice; [6]) was 105.3 ± 15.8 %ID g^−1. For the same molecule, the spleen (LNCaP tumor-bearing mice; [6]) was 7.9 ± 2.6 %ID g^−1, the tumor (LNCaP tumor-bearing mice; [6]) was 8.0 ± 1.7 %ID g^−1 and the logD [1] was −4.47 ± 0.14.

Molecule `O=C(O)CCC(NC(=O)NC(CCCCNC(=O)C(Cc1c[nH]c2ccccc12)NC(=O)C1CCC(CNC(=O)CN2CCN(CC(=O)O)CCN(CC(=O)O)CCN(CC(=O)O)CC2)CC1)C(=O)O)C(=O)O` [PSMA-D4, Glu-CO-Lys-L-Trp-4-Amc-DOTA] has an IC50 (PSMA antigen [4]) of 28.7 ± 5.2 nM.

For `O=C(O)CC[C@H](NC(=O)N[C@@H](CCCCNC(=O)[C@H](Cc1ccc2ccccc2c1)NC(=O)[C@H]1CC[C@H](CNC(=O)CN2CCN(CC(=O)O)CCN(CC(=O)O)CCN(CC(=O)O)CC2)CC1)C(=O)O)C(=O)O` [PSMA-617, Glu-CO-Lys-2-naphthyl-L-Ala-cyclohexane-DOTA], the IC50 (PSMA) is listed as 2.7 ± 0.1 nM.
